Measurements reported in paper PMC11239005, “Preclinical studies of RA475, a guanidine-substituted spirocyclic candidate RPN13/ADRM1 inhibitor for treatment of ovarian cancer” (PLOS ONE, 2024).
Several values for one entry are separate records, joined by “and”; a condition that tells them apart may be missing. Equal entries are not always repeated. Where two headings read alike, the source gives them in different places.

Legend:
[1] = Stability in mouse liver microsomes; type: in vitro ADME; conditions: with or without NADPH, over 1 h
Experimental: (§1) Human and mouse liver microsomes and NADPH regenerating system solutions were purchased from Corning Life Sciences (Tewsbury, MA). Human and mouse K2EDTA-treated plasma was purchased from BioIVT (Westbury, NY). Metabolic studies in liver microsomes (0.125 mg/mL) were conducted in 1x PBS (pH 7.4), NADPH-generating system, and 10 μM RA475 in a final volume of 250 μL. An incubation mixture with or without NADPH-generating system, as well as a neat solution prepared without microsomes and NADPH-generating system was used. RA475 was added at the same concentration level into human and mouse EDTA plasma. All reactions were initiated with the addition of RA475. Incubations were performed in glass tubes maintained at 37°C in a shaker bath. At 0, 30, and 60 min, 10 μL samples were withdrawn from the reaction mixture, and 0.5 mL of acetonitrile containing internal standard was added to each. Samples were vortex-mixed and subjected to centrifugation for 5 min at 1430 x g. A 10 μL aliquot of the supernatant was injected onto the LC-MS/MS instrument for qualitative analysis using a temperature-controlled autosampling device operating at 5°C (See Pharmacokinetic section).

[2] = Stability in liver microsomes (species not separated in text); type: in vitro ADME
Experimental: as §1

[3] = Single dose plasma pharmacokinetics in CD1 mice; type: in vivo, mouse
Experimental: For single dose pharmacokinetic studies, plasma samples (40 μL) were mixed with 200 μL of a water-methanol (1:9, v/v) containing the internal standard elacridar at 80 ng/mL. After mixing by pipetting and centrifuging for 4 min at 5500 x g, 0.25 μL of the supernatant was injected into LC-MS/MS system. […] Mobile phase A was acetonitrile/water (5:95, v/v) containing 1% formic acid, and mobile phase B was acetonitrile containing 0.1% formic acid. The gradient was initiated with mobile phase B at 10% with a flow rate of 0.4 mL/min, increased to 100% over 0.9 min and then and held for 0.1 min, and returned back to 10% mobile phase B and allowed to equilibrate until 2.2 min. An SCIEX 5000 triple quadrupole mass spectrometer operated in positive electrospray ionization mode was used for the detection of RA475. The lower limit of quantitation (LLOQ) in plasma was 10 ng/mL.
Pharmacokinetic parameters were calculated from mean concentration-time data using non-compartmental methods in Phoenix WinNonlin version 8.3 (Certara, Princeton, NJ). Concentrations after the time 0 sample that were below the LLOQ were imputed with ½ that value (1 ng/mL). Any concentration that was determined to be an outlier by the Grubbs’s outlier test were excluded from analysis. The maximum plasma concentration (Cmax) and time to Cmax (Tmax) were the observed values. The AUClast was calculated using the log-linear trapezoidal method. AUC was extrapolated to infinity (AUCINF) by dividing the last quantifiable concentration by the terminal disposition rate constant (λz). The λz was determined from at least 3 points on the slope of the terminal phase of the concentration-time profile. The terminal half-life (T1/2) was determined by dividing 0.693 by λz. Clearance (Cl) or apparent Cl (Cl/F) was calculated by dividing the dose administered by AUCINF. Volume of distribution (V) or apparent V (V/F) was calculated by dividing Cl or Cl/F by λz. […] The oral and IP bioavailability was calculated as: F(%)=DoseIV×AUCINFPO/DosePO×[…].100%
The Method of Bailer was used to estimate the variance of AUC given the calculated variance of the mean concentration at each time point. A pairwise comparison utilizing Z test was used to determine whether there was a significant difference between RA475 exposures as expressed by AUC last. Additionally, the Up284 exposure was truncated to 8 h and compared to the same route of administration and exposure as RA475. In all cases, p < 0.05 was considered statistically significant.
CD1 (n = 4 per time point and condition; 8 weeks old, 26.8±3g) mice were administered a single dose of RA475, either IV (10 mg/kg), PO (40 mg/kg), or IP (40 mg/kg), and thereafter serial blood plasma samples were analyzed for RA475 levels by LC–MS/MS. The animals were randomly assigned to the treatment groups (S9 Table) and fasted for 4 h before dosing. Eight time points for IV and IP (0.083, 0.25, 0.5, 1, 2, 4, 6, and 8 h) and seven time points for PO (0.25, 0.5, 1, 2, 4, 6, and 8) administration were set for this pharmacokinetic study. Mice were injected IP with 2,2,2-tribromoethanol at the dose of 150 mg/kg prior to drawing the blood in microtainers containing K3EDTA via retro-orbital bleeding. Blood samples were centrifuged 10 min at 3000 rpm. All samples were immediately processed, flash-frozen and stored at -70°C until subsequent analysis. No obvious adverse effects were observed during this PK study. The average RA475 plasma concentrations data for IV, IP, and PO dosed groups (S10–S12 Tables) is graphically presented in Fig 4, and may be compared to published data for Up284 [37]. Pharmacokinetic parameters were calculated from mean concentration-time data using non-compartmental methods in Phoenix WinNonlin version 8.3 (Certara, Princeton, NJ) (S13 Table). Using the Method of Bailer, there was no difference in dose normalized AUClast by any route of administration of RA475.

[4] = male, CD1, mouse, plasma, ip, 40 mg/kg, IP 40 mg/Kg
[5] = male, CD1, mouse, plasma, po, 40 mg/kg, PO 40 mg/Kg
[6] = male, CD1, mouse, plasma, IP 40 mg/kg
[7] = male, CD1, mouse, plasma, IV 10 mg/kg
[8] = male, CD1, mouse, plasma, PO 40 mg/kg

Cl.Cl.N#Cc1ccc(/C=C2/C(=O)/C(=C/c3ccc(C#N)cc3)C23CCN(C(=N)N)CC3)cc1 [RA475, 1,3-bis((E)-4-cyanobenzylidene)-2-oxo-7-azaspiro[3.5]nonane-7-carboximidamide dihydrochloride]
degradation in liver microsomes [1]: < 10% | present after 1 h in liver microsomes [2]: 93% | concentration at 360 min ([3]; CD1, mouse, plasma, ip, 40 mg/kg, IP 40 mg/Kg, 360 min, read-out: Plasma concentration, Group A-D): 327 ng/mL | bioavailability ([3]; CD1, mouse, plasma, IP 40 mg/kg): 103% | bioavailability ([3]; CD1, mouse, plasma, PO 40 mg/kg): 1.1% | Plasma concentration, Group A-D ([3]; IP 40 mg/Kg, 240 min, 40 mg/kg): 484 ng/mL and 577 ng/mL and 614 ng/mL | Plasma concentration, Group A-D ([3]; IP 40 mg/Kg, 480 min, 40 mg/kg): 118 ng/mL and 174 ng/mL and 125 ng/mL | Plasma concentration, Group A-D ([3]; PO 40 mg/Kg, 30 min, 40 mg/kg): 60 ng/mL and 57 ng/mL and 52 ng/mL | Plasma concentration, Group A-D ([3]; PO 40 mg/Kg, 60 min, 40 mg/kg): 33 ng/mL and 35 ng/mL and 44 ng/mL | Plasma concentration, Mean ([3]; PO 40 mg/Kg, 240 min): BQL | Plasma concentration, Mean ([3]; PO 40 mg/Kg, 360 min): BQL | Plasma concentration, Group A-D ([3]; PO 40 mg/Kg, 360 min, LLOQ 10 ng/mL): BQL | Plasma concentration, Mean ([3]; PO 40 mg/Kg, 480 min): BQL | Plasma concentration, Group A-D ([3]; PO 40 mg/Kg, 480 min, LLOQ 10 ng/mL): BQL | dose-normalized Cmax, fold higher than Up284 ([3]; RA475 vs Up284): 2.3 fold | concentration at 15 min [3, 4]: 11500 ng/mL | concentration at 30 min ([3]; male, CD1, mouse, plasma, ip, 40 mg/kg, IP 40 mg/Kg, 30 min, read-out: Plasma concentration, Mean): 9350 ng/mL | concentration at 60 min ([3]; male, CD1, mouse, plasma, ip, 40 mg/kg, IP 40 mg/Kg, 60 min, read-out: Plasma concentration, Mean): 3580 ng/mL | concentration at 120 min [3, 4]: 969 ng/mL | concentration at 240 min ([3]; male, CD1, mouse, plasma, ip, 40 mg/kg, IP 40 mg/Kg, 240 min, read-out: Plasma concentration, Group A-D): 356 ng/mL | concentration at 240 min ([3]; male, CD1, mouse, plasma, ip, 40 mg/kg, IP 40 mg/Kg, 240 min, read-out: Plasma concentration, Mean): 508 ng/mL | concentration at 360 min ([3]; male, CD1, mouse, plasma, ip, 40 mg/kg, IP 40 mg/Kg, 360 min, read-out: Plasma concentration, Mean): 125 ng/mL | concentration at 480 min ([3]; male, CD1, mouse, plasma, ip, 40 mg/kg, IP 40 mg/Kg, 480 min, read-out: Plasma concentration, Group A-D): 105 ng/mL | concentration at 480 min ([3]; male, CD1, mouse, plasma, ip, 40 mg/kg, IP 40 mg/Kg, 480 min, read-out: Plasma concentration, Mean): 131 ng/mL | concentration at 15 min [3, 5]: 141 ng/mL | concentration at 30 min ([3]; male, CD1, mouse, plasma, po, 40 mg/kg, PO 40 mg/Kg, 30 min, read-out: Plasma concentration, Group A-D): 69 ng/mL | concentration at 30 min ([3]; male, CD1, mouse, plasma, po, 40 mg/kg, PO 40 mg/Kg, 30 min, read-out: Plasma concentration, Mean): 60 ng/mL | concentration at 60 min ([3]; male, CD1, mouse, plasma, po, 40 mg/kg, PO 40 mg/Kg, 60 min, read-out: Plasma concentration, Group A-D): 29 ng/mL | concentration at 60 min ([3]; male, CD1, mouse, plasma, po, 40 mg/kg, PO 40 mg/Kg, 60 min, read-out: Plasma concentration, Mean): 35 ng/mL | concentration at 120 min [3, 5]: 20 ng/mL | concentration at 240 min ([3]; male, CD1, mouse, plasma, po, 40 mg/kg, PO 40 mg/Kg, 240 min, LLOQ 10 ng/mL, read-out: Plasma concentration, Group A-D): 20 ng/mL | AUC(0-t) [3, 6]: 11300 ng·h/mL | Cmax [3, 6]: 11500 ng/mL | Tmax [3, 6]: 15 min | AUC(0-inf) [3, 7]: 2780 ng·h/mL | AUC(0-t) [3, 7]: 2730 ng·h/mL | Cmax [3, 7]: 10500 ng/mL | half-life [3, 7]: 126 min | AUC(0-inf) [3, 8]: 139 ng·h/mL | AUC(0-t) [3, 8]: 118 ng·h/mL | Cmax [3, 8]: 142 ng/mL | Tmax [3, 8]: 15 min | half-life [3, 8]: 96 min | CL/F ([3]; male, CD1, mouse, plasma, PO 40 mg/kg, read-out: Cl or Cl/F (converted)): 4810 mL/min/kg | Tmax ([3]; mouse, plasma, IV 10 mg/kg, male CD1 mice): 4.98 min | Cl or Cl/F ([3]; plasma, IV 10 mg/kg): 3.6 mL/min/kg | V or V/F ([3]; plasma, IV 10 mg/kg): 10.9 L/kg | V or V/F ([3]; plasma, PO 40 mg/kg): 668.1 L/kg
